Results reported in the supplement of paper PMC13380429.
± gives the standard deviation of the averaged measurements.

What was measured:
Conditions in all cases: 72 h
HepG2 [1] = test: cell viability relative to DMSO; higher = less toxic
U2OS [2] = test: as above
Calu-3 [3] = test: as above
Vero E6 [4] = test: as above
Caco-2 [5] = test: as above
HepG2 [6] = test: drug sensitivity score (DSS) for viability; higher = more toxic; extreme values may be limits of the assay
U2OS [7] = test: as above
Calu-3 [8] = test: as above
Vero E6 [9] = test: as above
Caco-2 [10] = test: as above
HepG2 [11] = test: relative viability EC50 (midpoint between 100% and the lowest measured viability); higher = less toxic
U2OS [12] = test: as above
Calu-3 [13] = test: as above
Vero E6 [14] = test: as above
Caco-2 [15] = test: as above

SMILES	cell viability (HepG2 [1]; 1 nM) [%]	cell viability (HepG2 [1]; 10 nM) [%]	cell viability (HepG2 [1]; 100 nM) [%]	cell viability (HepG2 [1]; 1000 nM) [%]	cell viability (HepG2 [1]; 10000 nM) [%]	cell viability (U2OS [2]; 1 nM) [%]	cell viability (U2OS [2]; 10 nM) [%]	cell viability (U2OS [2]; 100 nM) [%]	cell viability (U2OS [2]; 1000 nM) [%]	cell viability (U2OS [2]; 10000 nM) [%]	cell viability (Calu-3 [3]; 1 nM) [%]	cell viability (Calu-3 [3]; 10 nM) [%]	cell viability (Calu-3 [3]; 100 nM) [%]	cell viability (Calu-3 [3]; 1000 nM) [%]	cell viability (Calu-3 [3]; 10000 nM) [%]	cell viability (Vero E6 [4]; 1 nM) [%]	cell viability (Vero E6 [4]; 10 nM) [%]	cell viability (Vero E6 [4]; 100 nM) [%]	cell viability (Vero E6 [4]; 1000 nM) [%]	cell viability (Vero E6 [4]; 10000 nM) [%]	cell viability (Caco-2 [5]; 1 nM) [%]	cell viability (Caco-2 [5]; 10 nM) [%]	cell viability (Caco-2 [5]; 100 nM) [%]	cell viability (Caco-2 [5]; 1000 nM) [%]	cell viability (Caco-2 [5]; 10000 nM) [%]	drug sensitivity score (HepG2 [6])	drug sensitivity score (U2OS [7])	drug sensitivity score (Calu-3 [8])	drug sensitivity score (Vero E6 [9])	drug sensitivity score (Caco-2 [10])	relative viability EC50 (HepG2 [11]) [µM]	relative viability EC50 (U2OS [12]) [µM]	relative viability EC50 (Calu-3 [13]) [µM]	relative viability EC50 (Vero E6 [14]) [µM]	relative viability EC50 (Caco-2 [15]) [µM]
CCC(=O)N1CCN(c2ccc(-n3c(=O)ccc4cnc5ccc(-c6cnc7ccccc7c6)cc5c43)cc2C(F)(F)F)CC1 [torin-1]	101	97.9	95	53.8	26.3	100	103	91.8	42.2	19	108	98.7	86.4	33.7	32.4	93.4	94.4	88.2	57.9	39.4	97.5	101	89.6	49.4	31.1	9.8	12	14.4	9.3	10.7	0.684	0.512	0.183	0.404	0.426
c1cnc2cc3c(cc2n1)[C@@H]1CNC[C@H]3C1 [varenicline]	97.2	88.7	90.4	95.4	101	97.5	93.5	103	96.3	104	105	99.1	108	98.1	105	91	99.8	91.4	98.7	104	95.4	91.9	103	93.1	93.7	0	0	0	0	0	> 10	> 10	> 10	> 10	> 10
OC[C@H]1O[C@@H](c2ccc(Cl)c(Cc3ccc(O[C@H]4CCOC4)cc3)c2)[C@H](O)[C@@H](O)[C@@H]1O [empagliflozin]	99.4	109	91.9	109	117	98.6	92.3	103	96.7	96.4	87.9	110	114	98.7	101	90	103	95	94.9	106	95	97.3	102	94.7	104	0	0	0	0	0	> 10	> 10	> 10	> 10	> 10
CCc1cc(Cl)c(OC)c(C(=O)NC[C@@H]2CCCN2CC)c1O [eticlopride]	115	108	121	106	91.4	99.1	106	96.3	103	94.8	105	102	103	99.9	98.5	107	102	106	102	94.7	102	101	92.5	103	87	0	0	0	0	0.1	> 10	> 10	> 10	> 10	> 10
CC(C)(S)C(N)C(=O)O (stereo in doubt) [penicillamine-(racemic)]	103	106	110	95	100	103 ± 1.8	97.4 ± 2.1	100.2 ± 0.35	98.5 ± 6.2	101 ± 1.1	95.7 ± 11	94.9 ± 13	98.3 ± 5	106 ± 3.7	108 ± 3.2	104 ± 6.7	102 ± 5.4	102 ± 2.6	99.9 ± 7.1	101 ± 3.6	105 ± 1.9	98 ± 0.42	96 ± 3.5	93.7 ± 4.4	98.55 ± 0.35	0	0	0	0	0	> 10	> 10	> 10	> 10	> 10
CN1C(=O)CC(c2ccccc2)C1=O (stereo not given) [phensuximide]	108	110	96.4	98.3	98.9	96.2	99.8	100	98.3	106	100	108	107	99.1	103	104	103	99.5	103	98.3	99.3	102	97.2	90.9	103	0	0	0	0	0	> 10	> 10	> 10	> 10	> 10
COc1ccc2cc1Oc1cc3c(cc1OC)CC[N+](C)(C)[C@H]3Cc1ccc(cc1)Oc1c(OC)c(OC)cc3c1[C@@H](C2)[N+](C)(C)CC3 [metocurine]	93.3	115	86.2	108	111	97.6	99.3	106	102	99.4	102	88.4	105	96.5	93.2	91.5	96.8	91.6	102	105	95.7	92.2	94.8	108	105	0	0	0	0	0	> 10	> 10	> 10	> 10	> 10
Oc1ccc(-c2c(-c3ccccc3)nn3c(C(F)(F)F)cc(C(F)(F)F)nc23)cc1 [PHTPP]	104	95.5	83.4	103	88.7	99.5	96.5	102	99.2	100	98.5	94.6	97.4	91.3	113	105	109	95.8	105	96.5	104	100	99.1	102	95.9	0	0	0	0	0	> 10	> 10	> 10	> 10	> 10
CCOc1nc2cccc(C(=O)OC(C)OC(=O)OC3CCCCC3)c2n1Cc1ccc(-c2ccccc2-c2nn[nH]n2)cc1 (stereo not given) [candesartan-cilexetil]	98.3	103	104	102	100	93.7	106	93.6	90.9	92.7	93.1	105	99.5	105	105	107	106	109	104	99.1	95.6	100	91.4	101	86.5	0	0	0	0	0.1	> 10	> 10	> 10	> 10	> 10
CCCCCn1cc(C(=O)NC23CC4CC(CC(C4)C2)C3)c(=O)c2cc(-c3ccccc3)ccc21 [COR-170]	103	93.6	91	105	92.1	96.2	99.9	98.3	94.7	99.9	105	89.2	104	98.2	97	100	97.7	103	106	94.8	90.9	103	100	100	98.3	0	0	0	0	0	> 10	> 10	> 10	> 10	> 10
Cc1cc(C)cc(NC(=O)Nc2ccc(OS(N)(=O)=O)cc2)c1 [S4]	107	99.3	104	108	97.2	102	96.9	100	98.1	99	104	104	92.7	100	89.5	102	103	103	103	96.6	105	97.6	99.3	87.4	101	0	0	0	0	0	> 10	> 10	> 10	> 10	> 10
